Laboratory results as given in ChEMBL document CHEMBL2029289, “Structure-activity relationship study of a CXC chemokine receptor type 4 antagonist, FC131, using a series of alkene dipeptide isosteres” (J Med Chem, 2012).
pIC50: −log10 of the molar value.

Target: C-X-C chemokine receptor type 4 (Homo sapiens, UniProt P61073)
Experiment: Displacement of [125I]SDF-1alpha from CXCR4 expressed in HEK293 cell membrane after 1 hr
Type: cell membranes

Sequence of C-X-C chemokine receptor type 4 (P61073 whole entry): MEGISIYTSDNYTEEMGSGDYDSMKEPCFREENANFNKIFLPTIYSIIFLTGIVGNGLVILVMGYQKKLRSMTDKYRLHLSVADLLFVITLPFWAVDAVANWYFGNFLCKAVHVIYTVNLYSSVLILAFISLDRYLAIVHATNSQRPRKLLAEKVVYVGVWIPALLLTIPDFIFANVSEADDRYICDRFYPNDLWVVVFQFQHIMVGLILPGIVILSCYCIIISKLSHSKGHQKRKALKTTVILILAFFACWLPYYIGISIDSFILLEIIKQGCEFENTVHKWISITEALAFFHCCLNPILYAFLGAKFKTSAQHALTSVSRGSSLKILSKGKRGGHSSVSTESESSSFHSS

pIC50	SMILES
7.20	CN1C(=O)[C@@H](Cc2ccc(O)cc2)NC(=O)CNC(=O)[C@H](Cc2ccc3ccccc3c2)NC(=O)[C@H](CCCN=C(N)N)NC(=O)[C@H]1CCCN=C(N)N
6.48	NC(N)=NCCC[C@H]1/C=C/[C@@H](Cc2ccc(O)cc2)NC(=O)CNC(=O)[C@H](Cc2ccc3ccccc3c2)NC(=O)[C@H](CCCN=C(N)N)NC1=O
6.30	C/C1=C\[C@H](CCCNC(=N)N)C(=O)N[C@@H](CCCNC(=N)N)C(=O)N[C@@H](Cc2ccc3ccccc3c2)C(=O)NCC(=O)N[C@@H]1Cc1ccc(O)cc1
5.60	C/C1=C(/C)[C@@H](Cc2ccc(O)cc2)NC(=O)CNC(=O)[C@H](Cc2ccc3ccccc3c2)NC(=O)[C@H](CCCNC(=N)N)NC(=O)[C@H]1CCCNC(=N)N
7.00	C/C1=C(/C)[C@@H](CCCNC(=N)N)C(=O)N[C@@H](CCCNC(=N)N)C(=O)N[C@@H](Cc2ccc3ccccc3c2)C(=O)NCC(=O)N[C@@H]1Cc1ccc(O)cc1
< 5.00	NC(N)=NCCC[C@H]1CC[C@H](Cc2ccc(O)cc2)NC(=O)CNC(=O)[C@H](Cc2ccc3ccccc3c2)NC(=O)[C@H](CCCN=C(N)N)NC1=O
6.54	CN1C(=O)[C@@H](Cc2ccc(O)cc2)NC(=O)CNC(=O)[C@H](Cc2ccc3ccccc3c2)NC(=O)[C@H](CCCNC(=N)N)NC(=O)[C@@H]1CCCNC(=N)N
